{"source": "patent US8192962B2", "about": "“Processes for detecting toxic substances” (Daikin Industries, Ltd., priority 2001, dated 2012)", "test_system": "Transport facilitation protein genes", "experiment": "DNA chip mRNA expression in yeast, transport facilitation protein genes (Table 5)", "assay_type": "cell-based, Saccharomyces cerevisiae S288C", "how_it_was_run": "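Ratios compare mRNA levels in stressed and control S. cerevisiae. Each toxicant was applied for two hours to log-phase cultures at 25° C. at a sub-lethal, growth-inhibiting level; fluorescent cDNA (Cy3- or Cy5-dUTP) was hybridized to a genome-wide yeast chip for over 12 h at 65° C.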", "data": [{"smiles": "[Cl][Pb][Cl]", "note": "[(4), PbCl2]", "values": [{"measurement": "The level of expressed mRNA in the presence of chemical substance/The level of expressed mRNA in the absence of chemical substance", "setting": "yeast gene YGR260W", "value": 0.8}, {"measurement": "The level of expressed mRNA in the presence of chemical substance/The level of expressed mRNA in the absence of chemical substance", "setting": "yeast gene YGR281W", "value": 2.2}, {"measurement": "The level of expressed mRNA in the presence of chemical substance/The level of expressed mRNA in the absence of chemical substance", "setting": "yeast gene YHL035C", "value": 1.9}, {"measurement": "The level of expressed mRNA in the presence of chemical substance/The level of expressed mRNA in the absence of chemical substance", "setting": "yeast gene YHL040C", "value": 0.4}, {"measurement": "The level of expressed mRNA in the presence of chemical substance/The level of expressed mRNA in the absence of chemical substance", "setting": "yeast gene YHL047C", "value": 1.0}, {"measurement": "The level of expressed mRNA in the presence of chemical substance/The level of expressed mRNA in the absence of chemical substance", "setting": "yeast gene YHR026W", "value": 1.0}, {"measurement": "The level of expressed mRNA in the presence of chemical substance/The level of expressed mRNA in the absence of chemical substance", "setting": "yeast gene YHR092C", "value": 2.5}, {"measurement": "The level of expressed mRNA in the presence of chemical substance/The level of expressed mRNA in the absence of chemical substance", "setting": "yeast gene YHR094C", "value": 1.6}, {"measurement": "The level of expressed mRNA in the presence of chemical substance/The level of expressed mRNA in the absence of chemical substance", "setting": "yeast gene YHR175W", "value": 1.5}, {"measurement": "The level of expressed mRNA in the presence of chemical substance/The level of expressed mRNA in the absence of chemical substance", "setting": "yeast gene YIL006W", "value": 2.9}, {"measurement": "The level of expressed mRNA in the presence of chemical substance/The level of expressed mRNA in the absence of chemical substance", "setting": "yeast gene YIL022W", "value": 1.6}, {"measurement": "The level of expressed mRNA in the presence of chemical substance/The level of expressed mRNA in the absence of chemical substance", "setting": "yeast gene YIL056W", "value": 1.4}, {"measurement": "The level of expressed mRNA in the presence of chemical substance/The level of expressed mRNA in the absence of chemical substance", "setting": "yeast gene YIL088C", "value": 1.3}, {"measurement": "The level of expressed mRNA in the presence of chemical substance/The level of expressed mRNA in the absence of chemical substance", "setting": "yeast gene YJL034W", "value": 0.8}, {"measurement": "The level of expressed mRNA in the presence of chemical substance/The level of expressed mRNA in the absence of chemical substance", "setting": "yeast gene YJL212C", "value": 0.5}, {"measurement": "The level of expressed mRNA in the presence of chemical substance/The level of expressed mRNA in the absence of chemical substance", "setting": "yeast gene YJL219W", "value": 1.6}, {"measurement": "The level of expressed mRNA in the presence of chemical substance/The level of expressed mRNA in the absence of chemical substance", "setting": "yeast gene YJR077C", "value": 1.6}, {"measurement": "The level of expressed mRNA in the presence of chemical substance/The level of expressed mRNA in the absence of chemical substance", "setting": "yeast gene YJR106W", "value": 1.1}, {"measurement": "The level of expressed mRNA in the presence of chemical substance/The level of expressed mRNA in the absence of chemical substance", "setting": "yeast gene YJR121W", "value": 1.0}, {"measurement": "The level of expressed mRNA in the presence of chemical substance/The level of expressed mRNA in the absence of chemical substance", "setting": "yeast gene YKL016C", "value": 1.7}, {"measurement": "The level of expressed mRNA in the presence of chemical substance/The level of expressed mRNA in the absence of chemical substance", "setting": "yeast gene YKL146W", "value": 0.9}, {"measurement": "The level of expressed mRNA in the presence of chemical substance/The level of expressed mRNA in the absence of chemical substance", "setting": "yeast gene YKR039W", "value": 1.7}, {"measurement": "The level of expressed mRNA in the presence of chemical substance/The level of expressed mRNA in the absence of chemical substance", "setting": "yeast gene YKR067W", "value": 2.5}, {"measurement": "The level of expressed mRNA in the presence of chemical substance/The level of expressed mRNA in the absence of chemical substance", "setting": "yeast gene YLL028W", "value": 0.5}, {"measurement": "The level of expressed mRNA in the presence of chemical substance/The level of expressed mRNA in the absence of chemical substance", "setting": "yeast gene YLR081W", "value": 3.6}, {"measurement": "The level of expressed mRNA in the presence of chemical substance/The level of expressed mRNA in the absence of chemical substance", "setting": "yeast gene YLR295C", "value": 1.7}, {"measurement": "The level of expressed mRNA in the presence of chemical substance/The level of expressed mRNA in the absence of chemical substance", "setting": "yeast gene YLR348C", "value": 1.2}, {"measurement": "The level of expressed mRNA in the presence of chemical substance/The level of expressed mRNA in the absence of chemical substance", "setting": "yeast gene YLR378C", "value": 0.5}, {"measurement": "The level of expressed mRNA in the presence of chemical substance/The level of expressed mRNA in the absence of chemical substance", "setting": "yeast gene YMR011W", "value": 5.5}, {"measurement": "The level of expressed mRNA in the presence of chemical substance/The level of expressed mRNA in the absence of chemical substance", "setting": "yeast gene YMR162C", "value": 2.0}, {"measurement": "The level of expressed mRNA in the presence of chemical substance/The level of expressed mRNA in the absence of chemical substance", "setting": "yeast gene YMR203W", "value": 1.4}, {"measurement": "The level of expressed mRNA in the presence of chemical substance/The level of expressed mRNA in the absence of chemical substance", "setting": "yeast gene YNL055C", "value": 2.0}, {"measurement": "The level of expressed mRNA in the presence of chemical substance/The level of expressed mRNA in the absence of chemical substance", "setting": "yeast gene YNL259C", "value": 1.2}, {"measurement": "The level of expressed mRNA in the presence of chemical substance/The level of expressed mRNA in the absence of chemical substance", "setting": "yeast gene YNR072W", "value": 0.7}, {"measurement": "The level of expressed mRNA in the presence of chemical substance/The level of expressed mRNA in the absence of chemical substance", "setting": "yeast gene YOL119C", "value": 2.3}, {"measurement": "The level of expressed mRNA in the presence of chemical substance/The level of expressed mRNA in the absence of chemical substance", "setting": "yeast gene YOL156W", "value": 1.1}, {"measurement": "The level of expressed mRNA in the presence of chemical substance/The level of expressed mRNA in the absence of chemical substance", "setting": "yeast gene YOL163W", "value": 3.3}, {"measurement": "The level of expressed mRNA in the presence of chemical substance/The level of expressed mRNA in the absence of chemical substance", "setting": "yeast gene YOR035C", "value": 1.2}, {"measurement": "The level of expressed mRNA in the presence of chemical substance/The level of expressed mRNA in the absence of chemical substance", "setting": "yeast gene YOR130C", "value": 1.0}, {"measurement": "The level of expressed mRNA in the presence of chemical substance/The level of expressed mRNA in the absence of chemical substance", "setting": "yeast gene YOR153W", "value": 1.1}, {"measurement": "The level of expressed mRNA in the presence of chemical substance/The level of expressed mRNA in the absence of chemical substance", "setting": "yeast gene YOR273C", "value": 1.0}, {"measurement": "The level of expressed mRNA in the presence of chemical substance/The level of expressed mRNA in the absence of chemical substance", "setting": "yeast gene YOR316C", "value": 1.5}, {"measurement": "The level of expressed mRNA in the presence of chemical substance/The level of expressed mRNA in the absence of chemical substance", "setting": "yeast gene YOR328W", "value": 1.0}, {"measurement": "The level of expressed mRNA in the presence of chemical substance/The level of expressed mRNA in the absence of chemical substance", "setting": "yeast gene YOR332W", "value": 1.0}, {"measurement": "The level of expressed mRNA in the presence of chemical substance/The level of expressed mRNA in the absence of chemical substance", "setting": "yeast gene YOR348C", "value": 2.0}, {"measurement": "The level of expressed mRNA in the presence of chemical substance/The level of expressed mRNA in the absence of chemical substance", "setting": "yeast gene YPL036W", "value": 0.9}, {"measurement": "The level of expressed mRNA in the presence of chemical substance/The level of expressed mRNA in the absence of chemical substance", "setting": "yeast gene YPL134C", "value": 1.6}, {"measurement": "The level of expressed mRNA in the presence of chemical substance/The level of expressed mRNA in the absence of chemical substance", "setting": "yeast gene YPL271W", "value": 1.2}, {"measurement": "The level of expressed mRNA in the presence of chemical substance/The level of expressed mRNA in the absence of chemical substance", "setting": "yeast gene YPR192W", "value": 5.0}, {"measurement": "The level of expressed mRNA in the presence of chemical substance/The level of expressed mRNA in the absence of chemical substance", "setting": "yeast gene YPR194C", "value": 2.9}]}]}
